The results in this text go back to patent publication US11091476B2, “Protein kinase inhibitors, preparation method and medical use thereof” (Gan & Lee Pharmaceuticals, priority 2015, dated 2021).

Each structure is given as a SMILES string. “Also recorded” adds a separate entry of the source. Like-named read-outs stand apart in the source and are kept apart here.

One series concerns the target CDK4/CyclinE1 (Homo sapiens, UniProt P11802). The following applies: read-out: CDK4/CyclinE1 IC50. How it is done:
Measurement of CDK kinase inhibitory activity of the compounds of this disclosure.
In vitro inhibitory effect of the compounds of the disclosure on CDK (CDK1, CDK4 and CDK6) kinase activity was tested by the following method.
1.1 Instrument and Kit Information
1.2 Experimental Preparation • 1.2.1 Preparation of Kinase Reaction Buffer I: The 5×Reaction Buffer A (Promega; V307A-C) provided in the kit was mixed and diluted with MILLI-Q® H2O and 0.1 M DTT (dithiothreitol) to give 4× kinase buffer, and then MILLI-Q® H2O was further added to finally formulate the solution into 1× Kinase buffer.
The final concentration was 50 μM. • b. 40 μl of kinase reaction buffer II was added into B2 to B10 of a 96-well plate, and 50 μl of the above solution was added into B1; • c. […]
1.3 Experimental process: • 1.3.1: 2 μl of compound solutions of various concentrations were taken, added to a 384-well plate, and centrifuged 3 minutes; • 1.3.2: 4 μl of kinase solution was added to each well, centrifuged at 5000 rpm and 18° C. for 10 minutes, and shaken on a plate shaker for 10 minutes; • 1.3.3: 4 μl of mixed solution of substrate and ATP was added to each well, centrifuged at 5000 rpm and 18° C. for 10 minutes, and shaken on a plate shaker at 37° C. for 90 minutes; • 1.3.4: The 384-well plate was taken out, and allowed to stand to room temperature; • 1.3.5: 10 μl of ADP-GLO™ reagent was added to each well, centrifuged at 5000 rpm and 18° C. for 18 minutes, and shaken on a plate shaker at 25° C. for 40 minutes, and then the reaction was stopped; • 1.3.6: 20 μl of kinase detection reagent was added to each well, centrifuged at 5000 rpm and 18° C. for 10 minutes, and shaken on a plate shaker at 25° C. for 30 minutes; and • 1.3.7: M1000pro MICROPLATE READER was used to read […] values.
The inhibition rate of each compound at each concentration point was calculated by the formula as follows and curve fitting was performed by GraphPad Prism 5 software to obtain the IC50 value.

Series [1] can be described thus: Plasma and brain exposure levels after single intragastric administration. The following applies: for Cmax: read-out: Blood concentration Cmax, Plasma. The series is classed as in vivo, CD-1 mice. On the procedure:
The CD-1 mice were used as the test animals, the concentrations of the drugs in the plasma and brain tissue of mice at different time points after single intragastric administration of the representative compound of this disclosure were determined by LC/MS/MS, so as to study the plasma level and brain exposure level of the compounds of the disclosure in mice.
For each test drug, 12 male CD-1 mice were administered intragastrically at a dose of 10 mg/kg and an administration volume of 10 ml/kg after fasting overnight.
The whole brain was collected, mashed and frozen in liquid nitrogen. Ten hours after administration, the remaining animals were sacrificed, whole blood was collected by cardiac puncture, and the whole brain was collected, mashed and frozen in liquid nitrogen.
The whole brain was collected, mashed and frozen in liquid nitrogen. 48 hours after administration, the remaining animals were sacrificed, whole blood was collected by cardiac puncture, and the whole brain was collected, mashed and frozen in liquid nitrogen.
Treatment of the whole blood sample: The collected whole blood was anticoagulated with EDTA-K2, and centrifuged, the supernatant was removed, and the residue was frozen and stored at −20° C. until the sample was analyzed by LC-MS/MS.
Brain homogenate sampling: Brain homogenate were dispersed with PBS (pH=7.4): MeOH (v:v, 2:1) solution in a volume 5 times of the volume of the brain homogenate. 100 μl of solution was taken, and the protein therein was precipitated with 600 μl IS. The mixture was centrifuged at 13,000 rpm and 20-25° C. for 15 minutes. 50 μL of the supernatant was mixed with 150 μL of water containing 0.3% FA and centrifuged at 4° C. 5 μL of the sample was analyzed by LC-MS/MS.
The linear range of sample analysis was 1-2000 ng/ml, and the lowest quantification limit was 1 ng/ml.

Setting [2] is: male, mouse, po, CD-1 mice, intragastric 10 mg/kg, brain, read-out: Area under curve AUC0-last, Brain.
[3] abbreviates: male, mouse, po, CD-1 mice, intragastric 10 mg/kg, brain, read-out: The time for blood concentration reaching peak Tmax, Brain.
Setting [4] is: male, mouse, po, CD-1 mice, intragastric 10 mg/kg, plasma, read-out: Area under curve AUC0-last, Plasma.
The mark [5] stands for this setting: male, mouse, po, CD-1 mice, intragastric 10 mg/kg, plasma.
[6] abbreviates: male, mouse, po, CD-1 mice, intragastric 10 mg/kg, plasma, read-out: The time for blood concentration reaching peak Tmax, Plasma.

CDK4/CyclinE1, sequence (P11802 2-303 limits assumed): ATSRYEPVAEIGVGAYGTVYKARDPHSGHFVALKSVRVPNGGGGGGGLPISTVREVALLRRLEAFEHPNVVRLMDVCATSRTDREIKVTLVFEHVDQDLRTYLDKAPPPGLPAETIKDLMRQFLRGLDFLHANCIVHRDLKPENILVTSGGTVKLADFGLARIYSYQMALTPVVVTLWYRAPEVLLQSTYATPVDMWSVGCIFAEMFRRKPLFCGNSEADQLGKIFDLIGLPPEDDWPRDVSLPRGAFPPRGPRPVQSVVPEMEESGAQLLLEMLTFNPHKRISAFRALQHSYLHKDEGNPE

Consider `CCN1CCC(c2ccc(Nc3ncc(F)c(-c4cc(F)c5c(c4)C4(CCCC4)C(C)=N5)n3)nc2)CC1` [Example 12, N-(5-(1-ethylpiperidin-4-yl)pyridin-2-yl)-5-fluoro-4-(7′-fluoro-2′-methylspiro [cyclopentane-1,3′-indol]-5′-yl)pyrimidine-2-amino], for which the IC50 on CDK4/CyclinE1 turned out to be 4.46 nM.

For `CCN1CCN(Cc2ccc(Nc3ncc(F)c(-c4cc(F)c5nc(C)n(C(C)C)c5c4)n3)nc2)CC1` [LY2835219, reference compound], the results for the AUC(0-t) in series [1] (setting [2]) and in series [1] (setting [4]) were 1110 ng·h/mL and 4250 ng·h/mL, respectively. The figures for the Tmax in series [1] (setting [3]) and in series [1] (setting [6]) were 6 h and 1.5 h, respectively. In addition, the Cmax in series [1] (setting [5]) was determined as 836 ng/mL.

As to `CC1=Nc2c(F)cc(-c3nc(Nc4ccc(C5CCN(C)CC5)cn4)ncc3F)cc2C12CCCC2` [Example 17, 5-Fluoro-4-(7′-fluoro-2′-methylspiro[cyclopentane-1,3′-indol]-5′-yl)-N-(5-(1-methylpiperidin-4-yl)pyridin-2-yl)pyrimidine-2-amino], the IC50 on CDK4/CyclinE1 was 2.62 nM. Further, the “Blood concentration Cmax, Brain” value in series [1] (CD-1 mice, intragastric 10 mg/kg, brain) came out at 1270 ng/mL. Moreover, in series [1] (male, mouse, brain/plasma, po, CD-1 mice, intragastric 10 mg/kg, ratio, read-out: Cmax Brain/Plasma), the Kp was found to be 1.98. The figures for the AUC(0-t) in series [1] (setting [2]) and in series [1] (setting [4]) were 16800 ng·h/mL and 7660 ng·h/mL, respectively. The Tmax in series [1] (setting [3]) and in series [1] (setting [6]) was 4 h throughout. The Cmax in series [1] (setting [5]) turned out to be 639 ng/mL. In addition, the “Blood brain distribution, in words” value in series [1] (mice, relative to LY2835219) is “better blood brain distribution; also recorded: good blood-brain distribution”.
